Data taken from the CheMixHub viscosity set.

Assay: xn = mol fraction of the nth substance listed

CCOC(C)=O + CCCCCC
Conditions	viscosity [mPa·s]
293.15 K, 101 kPa, x1 = 0.0998	0.3115
293.15 K, 101 kPa, x1 = 0.2074	0.3152
293.15 K, 101 kPa, x1 = 0.2978	0.3217
293.15 K, 101 kPa, x1 = 0.4046	0.3303
293.15 K, 101 kPa, x1 = 0.5034	0.3416
293.15 K, 101 kPa, x1 = 0.614	0.3599
293.15 K, 101 kPa, x1 = 0.6748	0.3683
293.15 K, 101 kPa, x1 = 0.8018	0.3963
293.15 K, 101 kPa, x1 = 0.9118	0.4248
298.15 K, 101 kPa, x1 = 0.0436	0.29
298.15 K, 101 kPa, x1 = 0.0998	0.2967
298.15 K, 101 kPa, x1 = 0.15	0.293
298.15 K, 101 kPa, x1 = 0.2074	0.3001
298.15 K, 101 kPa, x1 = 0.2504	0.298
298.15 K, 101 kPa, x1 = 0.2978	0.3052
298.15 K, 101 kPa, x1 = 0.3494	0.305
298.15 K, 101 kPa, x1 = 0.4046	0.3142
298.15 K, 101 kPa, x1 = 0.4477	0.314
298.15 K, 101 kPa, x1 = 0.4908	0.319
298.15 K, 101 kPa, x1 = 0.5034	0.3265
298.15 K, 101 kPa, x1 = 0.5489	0.326
298.15 K, 101 kPa, x1 = 0.614	0.3413
298.15 K, 101 kPa, x1 = 0.6485	0.342
298.15 K, 101 kPa, x1 = 0.6748	0.3496
298.15 K, 101 kPa, x1 = 0.7513	0.361
298.15 K, 101 kPa, x1 = 0.8018	0.3755
298.15 K, 101 kPa, x1 = 0.8507	0.384
298.15 K, 101 kPa, x1 = 0.9118	0.402
298.15 K, 101 kPa, x1 = 0.942	0.41
303.15 K, 101 kPa, x1 = 0.0998	0.283
303.15 K, 101 kPa, x1 = 0.2032	0.2874
303.15 K, 101 kPa, x1 = 0.2074	0.2861
303.15 K, 101 kPa, x1 = 0.2978	0.2901
303.15 K, 101 kPa, x1 = 0.4017	0.3009
303.15 K, 101 kPa, x1 = 0.4046	0.2991
303.15 K, 101 kPa, x1 = 0.5013	0.3117
303.15 K, 101 kPa, x1 = 0.5034	0.3092
303.15 K, 101 kPa, x1 = 0.599	0.3249
303.15 K, 101 kPa, x1 = 0.614	0.3231
303.15 K, 101 kPa, x1 = 0.6748	0.3317
303.15 K, 101 kPa, x1 = 0.8018	0.3565
303.15 K, 101 kPa, x1 = 0.8203	0.3611
303.15 K, 101 kPa, x1 = 0.9118	0.3812
303.15 K, 101.3 kPa, x1 = 0.106	0.2774
303.15 K, 101.3 kPa, x1 = 0.1995	0.2799
303.15 K, 101.3 kPa, x1 = 0.3097	0.2869
303.15 K, 101.3 kPa, x1 = 0.4073	0.2945
303.15 K, 101.3 kPa, x1 = 0.5055	0.3045
303.15 K, 101.3 kPa, x1 = 0.6094	0.3179
303.15 K, 101.3 kPa, x1 = 0.7062	0.3331
303.15 K, 101.3 kPa, x1 = 0.8061	0.3523
303.15 K, 101.3 kPa, x1 = 0.9036	0.3748
308.15 K, 101 kPa, x1 = 0.0436	0.272
308.15 K, 101 kPa, x1 = 0.15	0.274
308.15 K, 101 kPa, x1 = 0.2504	0.277
308.15 K, 101 kPa, x1 = 0.3494	0.282
308.15 K, 101 kPa, x1 = 0.4477	0.29
308.15 K, 101 kPa, x1 = 0.4908	0.294
308.15 K, 101 kPa, x1 = 0.5489	0.3
308.15 K, 101 kPa, x1 = 0.6485	0.313
308.15 K, 101 kPa, x1 = 0.7513	0.33
308.15 K, 101 kPa, x1 = 0.8507	0.349
308.15 K, 101 kPa, x1 = 0.942	0.371
313.15 K, 101 kPa, x1 = 0.0998	0.2582
313.15 K, 101 kPa, x1 = 0.2074	0.2604
313.15 K, 101 kPa, x1 = 0.2978	0.2643
313.15 K, 101 kPa, x1 = 0.4046	0.2723
313.15 K, 101 kPa, x1 = 0.5034	0.2806
313.15 K, 101 kPa, x1 = 0.614	0.2933
313.15 K, 101 kPa, x1 = 0.6748	0.3004
313.15 K, 101 kPa, x1 = 0.8018	0.3224
313.15 K, 101 kPa, x1 = 0.9118	0.3443

Clc1cccc(Cl)c1 + CCCCCC
viscosity [mPa·s], 100 kPa
Conditions	298.15 K	308.15 K	318.15 K
x1 = 0.0593	0.327	0.301	0.282
x1 = 0.1575	0.36	0.331	0.309
x1 = 0.255	0.4	0.368	0.338
x1 = 0.3473	0.446	0.407	0.37
x1 = 0.4204	0.487	0.442	0.4
x1 = 0.48	0.524	0.473	0.427
x1 = 0.5322	0.56	0.504	0.454
x1 = 0.5704	0.588	0.528	0.475
x1 = 0.6295	0.634	0.568	0.51
x1 = 0.6705	0.669	0.598	0.537
x1 = 0.7263	0.719	0.642	0.577
x1 = 0.8186	0.81	0.724	0.649
x1 = 0.9465	0.952	0.851	0.76

CCOC(C)=O + CCCCCCC
296 K, 101.3 kPa
Conditions	viscosity [mPa·s]
x1 = 0.0713	0.391
x1 = 0.1748	0.385
x1 = 0.2448	0.382
x1 = 0.3468	0.382
x1 = 0.4832	0.383
x1 = 0.4946	0.381
x1 = 0.5009	0.382
x1 = 0.5867	0.387
x1 = 0.6508	0.392
x1 = 0.7653	0.403
x1 = 0.8485	0.413
x1 = 0.8885	0.42

COC(=O)CC(C)=O + CCCCCCC(C)O
viscosity [mPa·s], 101.3 kPa
Conditions	x1 = 0.1041	x1 = 0.2072	x1 = 0.3091	x1 = 0.4101	x1 = 0.5107	x1 = 0.6079	x1 = 0.7081	x1 = 0.807	x1 = 0.9036
298.15 K	4.231	3.315	2.753	2.358	2.075	1.9	1.699	1.574	1.52
303.15 K	3.511	2.796	2.344	2.026	1.796	1.661	1.506	1.413	1.374
308.15 K	2.939	2.377	2.015	1.756	1.567	1.476	1.352	1.279	1.251

CCCCCCCCCCCCCCCCCCCl + CCCCCCCCCC
298 K, 101.3 kPa
Conditions	viscosity [mPa·s]
x2 = 0.1067	6.162
x2 = 0.2123	5.192
x2 = 0.3131	4.379
x2 = 0.3996	3.651
x2 = 0.508	2.885
x2 = 0.6105	2.385
x2 = 0.7027	1.919
x2 = 0.8012	1.487
x2 = 0.8979	1.145

CCCCCCCCCCCC(=O)OC + CCCCCCCCCC(=O)OCC
viscosity [mPa·s], 100 kPa
Conditions	298.15 K	308.15 K	318.15 K
x2 = 0.04836	2.784	2.203	1.856
x2 = 0.1051	2.725	2.165	1.824
x2 = 0.1954	2.649	2.106	1.778
x2 = 0.3128	2.556	2.041	1.723
x2 = 0.4082	2.482	1.988	1.677
x2 = 0.5008	2.417	1.945	1.639
x2 = 0.5987	2.348	1.897	1.601
x2 = 0.6571	2.307	1.87	1.582
x2 = 0.7044	2.274	1.849	1.567
x2 = 0.8	2.211	1.806	1.533
x2 = 0.8986	2.147	1.763	1.497
